Measured values taken from patent US11407738B2 (Achillion Pharmaceuticals, Inc., priority 2015, dated 2022).

Each molecule was assayed against Human Factor D (Homo sapiens (Human), UniProt P00746) (assay: Human Factor D assay). Settings: Table 3; Factor D inhibition, substrate Z-L-Lys-SBzl.
Chain of Human Factor D (P00746 26-253): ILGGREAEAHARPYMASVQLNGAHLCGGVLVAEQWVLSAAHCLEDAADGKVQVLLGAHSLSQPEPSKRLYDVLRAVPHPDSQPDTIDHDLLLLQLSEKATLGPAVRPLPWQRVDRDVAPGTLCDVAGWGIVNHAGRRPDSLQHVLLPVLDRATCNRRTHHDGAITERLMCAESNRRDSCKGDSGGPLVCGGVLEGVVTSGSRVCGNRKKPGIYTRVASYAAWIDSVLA
Assay type: biochemical
Protocol: Human Factor D (purified from human serum, Complement Technology, Inc.) at 80 nM final concentration is incubated with test compound at various concentrations for 5 min at room temperature in 50 mM Tris, 1M NaCl, pH 7.5. A synthetic substrate Z-L-Lys-SBzl and DTNB (Ellman's reagent) are added to final concentrations of 100 μM each. […] IC50 values are calculated by nonlinear regression of complement Factor D reaction rates as a function of test compound concentration.
In the case of `CC(=O)c1nn2c3ccc(cc13)-c1cnc(nc1)NCCCCCCCCC/C=C\c1cc(Cl)c(F)c(c1)CNC(=O)[C@@H]1C[C@@H](F)CN1C(=O)C2` [Compound 518, (5^2S,5^4R,Z)-2^3-acetyl-9^5-chloro-5^4,9^6-difluoro-2^1H-7,21-diaza-2(5,1)-indazola-1(5,2)-pyrimidina-5(1,2)-pyrrolidina-9(1,3)-benzenacyclohenico-saphan-10-ene-4,6-dione], the IC50 is reported as < 1 µM. In the case of `COC(=O)C[C@H]1CCCN1C(=O)Cn1nc(C(C)=O)c2cc(-c3cnc(C)nc3)ccc21` [Compound 509, (R)-methyl 2-(1-(2-(3-acetyl-5-(2-methylpyrimidin-5-yl)-1H-indazol-1-yl)acetyl)pyrrolidin-2-yl)acetate], the IC50 is reported as > 10 µM. In the case of `CC(=O)Cc1nn(CC(=O)N2C[C@H](F)C[C@H]2C(=O)Nc2cccc(Br)n2)c2ccc(-c3cnc(C)nc3)cc12` [Compound 522, (2S,4R)-N-(6-bromopyridin-2-yl)-4-fluoro-1-(2-(5-(2-methylpyrimidin-5-yl)-3-(2-oxopropyl)-1H-indazol-1-yl)acetyl)pyrrolidine-2-carboxamide], the IC50 is reported as < 1 µM. With `CC(=O)c1nn(CC(=O)N2C[C@H](F)C[C@H]2C(=O)Nc2cccc(-c3ccc4c(c3)OC(F)(F)O4)c2F)c2ccc(-c3cnc(C)nc3)cc12` [Compound 528, (2S,4R)-1-(2-(3-Acetyl-5-(2-methylpyrimidin-5-yl)-1H-indazol-1-yl)acetyl)-N-(3-(2,2-difluorobenzo[d][1,3]dioxol-5-yl)-2-fluorophenyl)-4-fluoropyrrolidine-2-carboxamide] the IC50 was < 1 µM. In the case of `CC(=O)c1nn(CC(=O)N2C[C@H](F)C[C@H]2C(=O)SCc2cccc(Cl)c2F)c2ccc(-c3cnc(C)nc3)cc12` [Compound 516, S-(3-Chloro-2-fluorobenzyl) (2S,4R)-1-(2-(3-acetyl-5-(2-methylpyrimidin-5-yl)-1H-indazol-1-yl)acetyl)-4-fluoropyrrolidine-2-carbothioate], the IC50 is reported as 1 to 10 µM. For `CC(=O)c1nn(CC(=O)N2C[C@H](F)C[C@H]2C(=O)Nc2cccc(-c3ccc4scnc4c3)c2F)c2ccc(-c3cnc4cc(C)nn4c3)cc12` [Compound 519, (2S,4R)-1-(2-(3-acetyl-5-(2-methylpyrazolo[1,5-a]pyrimidin-6-yl)-1H-indazol-1-yl)acetyl)-N-(3-(benzo[d]thiazol-5-yl)-2-fluorophenyl)-4-fluoropyrrolidine-2-carboxamide], the IC50 was < 1 µM. In the case of `CC(=O)c1nn(CC(=O)N2C[C@H](F)C[C@H]2C(=O)NC2CCN(c3ccc(C(=O)O)cn3)CC2)c2ccc(-c3cnc(C)nc3)cc12` [Compound 512, 6-(4-((2S,4R)-1-(2-(3-Acetyl-5-(2-methylpyrimidin-5-yl)-1H-indazol-1-yl)acetyl)-4-fluoropyrrolidine-2-carboxamido)piperidin-1-yl)nicotinic Acid], the IC50 is reported as 1 to 10 µM. With `CNS(=O)(=O)c1ccc(Cl)c(-c2cccc(NC(=O)[C@@H]3C[C@@H](F)CN3C(=O)Cn3nc(C(C)=O)c4cc(-c5cnc(C)nc5)ccc43)c2F)c1` [Compound 529, (2S,4R)-1-(2-(3-acetyl-5-(2-methylpyrimidin-5-yl)-1H-indazol-1-yl)acetyl)-N-(2′-chloro-2-fluoro-5′-(N-methylsulfamoyl)bi-phenyl-3-yl)-4-fluoropyrrolidine-2-carboxamide] the IC50 was < 1 µM. For `CC(=O)c1nn(CC(=O)N2C[C@H](F)C[C@H]2C(=O)Nc2cccc(-c3ccccc3Cl)c2F)c2ccc(N3CCn4c(nnc4C(F)(F)F)C3)cc12` [Compound 531, (2S,4R)-1-(2-(3-acetyl-5-(3-(trifluoromethyl)-5,6-dihydro-[1,2,4]triazolo[4,3-a]pyrazin-7(8H)-yl)-1H-indazol-1-yl)acetyl)-N-(2′-chloro-2-fluorobiphenyl-3-yl)-4-fluoropyrrolidine-2-carboxamide], the IC50 was < 1 µM.

Same assay, conditions: Table 4; Factor D inhibition, substrate Z-L-Lys-SBzl
With `Cc1cccc(NC(=O)[C@@H]2CCC(F)CCN2C(=O)Cn2cc(C(N)=O)c3cc(-c4cnn5c4CCC5)ccc32)n1` (stereo partly drawn) [Compound 617, 5-(5,6-Dihydro-4H-pyrrolo[1,2-b]pyrazol-3-yl)-1-(2-((2S)-5-fluoro-2-((6-methylpyridin-2-yl)carbamoyl)azepan-1-yl)-2-oxoethyl)-1H-indole-3-carboxamide] the IC50 was > 10 µM. `COC(=O)Cc1ccccc1CNC(=O)Cn1nc(C(C)=O)c2cc(-c3cnc(C)nc3)ccc21` [Compound 537, methyl 2-(2-((2-(3-acetyl-5-(2-methylpyrimidin-5-yl)-1H-indazol-1-yl)acetamido)meth-yl)phenyl)acetate] was tested, and the IC50 was > 10 µM. In the case of `COCCN(C)CCN1CC(NC(=O)[C@@H]2C[C@@H](F)CN2C(=O)Cn2nc(C(C)=O)c3cc(-c4cnc(C)nc4)ccc32)CC1=O` (stereo partly drawn) [Compound 533, (2S,4R)-1-(2-(3-acetyl-5-(2-methylpyrimidin-5-yl)-1H-indazol-1-yl)acetyl)-4-fluoro-N-(1-(2-((2-methoxyethyl)(meth-yl)amino)ethyl)-5-oxopyrrolidine-3-yl)pyrrolidine-2-carboxamide], the IC50 is reported as > 10 µM. `CC(=O)c1nn(CC(=O)N2C[C@H](F)C[C@H]2CC(=O)NO)c2ccc(-c3cnc(C)nc3)cc12` [Compound 592, 2-((2R,4R)-1-(2-(3-Acetyl-5-(2-methylpyrimidin-5-yl)-1H-indazol-1-yl)acetyl)-4-fluoropyrrolidin-2-yl)-N-hydroxyacetamide] was tested, and the IC50 was > 10 µM. For `CC(=O)c1nn(CC(=O)N2C[C@H](F)C[C@@H]2c2nc3nc(Br)ccc3[nH]2)c2ccc(-c3cnc(C)nc3)cc12` [Compound 565, 2-(3-Acetyl-5-(2-methylpyrimidin-5-yl)-1H-indazol-1-yl)-1-((2R,4R)-2-(5-bromo-1H-imidazo[4,5-b]pyridin-2-yl)-4-fluoropyrrolidin-1-yl)ethan-1-one], the IC50 was > 10 µM. For `CC(=O)c1nn(CC(=O)N2C[C@H](F)C[C@@H]2c2nnc(-c3cccc(Cl)c3F)[nH]2)c2ccc(-c3cnc(C)nc3)cc12` [Compound 572, 2-(3-acetyl-5-(2-methylpyrimidin-5-yl)-1H-indazol-1-yl)-1-((2R,4R)-2-(5-(3-chloro-2-fluorophenyl)-4H-1,2,4-triazol-3-yl)-4-fluoropyrrolidin-1-yl)ethan-1-one], the IC50 was > 10 µM. In the case of `Cc1cccc(NC(=O)[C@@H]2CCC(F)CCN2C(=O)Cn2cc(C(N)=O)c3cc(-c4cnc5n4CCCC5)ccc32)n1` (stereo partly drawn) [Compound 616, 1-(2-((2S)-5-Fluoro-2-((6-methylpyridin-2-yl)carbamoyl)azepan-1-yl)-2-oxoethyl)-5-(5,6,7,8-tetrahydroimidazo[1,2-a]pyridin-3-yl)-1H-indole-3-carboxamide], the IC50 is reported as > 10 µM. For `CC(=O)c1nn(CC(=O)N2C[C@H](F)C[C@H]2c2nc3nc(Br)ccc3[nH]2)c2ccc(-c3cnc(C)nc3)cc12` [Compound 564, 2-(3-Acetyl-5-(2-methylpyrimidin-5-yl)-1H-indazol-1-yl)-1-((2S,4R)-2-(5-bromo-1H-imidazo[4,5-b]pyridin-2-yl)-4-fluoropyrrolidin-1-yl)ethan-1-one], the IC50 was > 10 µM. With `Cc1cccc(NC(=O)[C@@H]2CCC(F)CCN2C(=O)Cn2cc(C(N)=O)c3cc(-c4ccc5cccnc5c4)ccc32)n1` (stereo partly drawn) [Compound 602, 1-(2-((2S)-5-Fluoro-2-((6-methylpyridin-2-yl)carbamoyl)azepan-1-yl)-2-oxoethyl)-5-(quinolin-7-yl)-1H-indole-3-carboxamide] the IC50 was > 10 µM. For `CC(=O)c1nn(CC(=O)N2C[C@H](F)C[C@H]2CNS(=O)(=O)c2cccc(Cl)c2F)c2ccc(-c3cnc(C)nc3)cc12` [Compound 563, N-(((2S,4R)-1-(2-(3-acetyl-5-(2-methylpyrimidin-5-yl)-1H-indazol-1-yl)acetyl)-4-fluoropyrrolidin-2-yl)methyl)-3-chloro-2-fluorobenzene-sulfonamide], the IC50 was < 1 µM. With `CC(=O)c1nn2c3ccc(cc13)-c1cnc(nc1)NCCCCCCCCCCCc1cc(Cl)c(F)c(c1)CNC(=O)[C@@H]1C[C@@H](F)CN1C(=O)C2` [Compound 541] the IC50 was > 10 µM. `CC(=O)c1nn(CC(=O)N2C[C@@](F)(CN=[N+]=[N-])C[C@H]2C(=O)Nc2cccc(Br)n2)c2ccc(-c3cnc(C)nc3)cc12` [Compound 547, (2S,4R)-1-(2-(3-Acetyl-5-(2-methylpyrimidin-5-yl)-1H-indazol-1-yl)acetyl)-4-(azidomethyl)-N-(6-bromopyridin-2-yl)-4-fluoropyrrolidine-2-carboxamide] was tested, and the IC50 was < 1 µM. For `Cc1cccc(NC(=O)[C@@H]2CCC(F)CCN2C(=O)Cn2cc(C(N)=O)c3cc(-c4cnc5ncccn45)ccc32)n1` (stereo partly drawn) [Compound 615, 1-(2-((2S)-5-Fluoro-2-((6-methylpyridin-2-yl)carbamoyl)azepan-1-yl)-2-oxoethyl)-5-(imidazo[1,2-a]pyrimidin-3-yl)-1H-indole-3-carboxamide], the IC50 was > 10 µM. In the case of `CC(=O)c1nn(CC(=O)N2C[C@H](F)C[C@H]2C(=O)Nc2cccc(-c3cc(F)ccc3S(C)(=O)=O)c2F)c2ccc(-c3cnc(C)nc3)cc12` [Compound 539, (2S,4R)-1-(2-(3-acetyl-5-(2-methylpyrimidin-5-yl)-1H-indazol-1-yl)acetyl)-N-(2,5′-difluoro-2′-(methylsulfonyl)-[1,1′-biphenyl]-3-yl)-4-fluoropyrrolidine-2-carboxamide], the IC50 is reported as < 1 µM. For `CC(=O)c1nn(CC(=O)N2C[C@H](F)C[C@H]2C(=O)NC2CCN(C(=O)c3cc(Cl)c[nH]3)CC2)c2ccc(-c3cnc(C)nc3)cc12` [Compound 532, (2S,4R)-1-(2-(3-acetyl-5-(2-methylpyrimidin-5-yl)-1H-indazol-1-yl)acetyl)-N-(1-(4-chloro-1H-pyrrole-2-carbonyl)piperidin-4-yl)-4-fluoropyrrolidine-2-carboxamide], the IC50 was < 1 µM. For `Cc1cccc(NC(=O)[C@@H]2CC=CCN2C(=O)Cn2cc(C(N)=O)c3cc(-c4cnc(C)nc4)ccc32)n1` [Compound 566, (S)-1-(2-(2-((6-Methylpyridin-2-yl)carbamoyl)-3,6-dihydropyridin-(2H)-yl)-2-oxoethyl)-5-(2-methylpyrimidin-5-yl)-1H-indole-3-carboxamide], the IC50 was > 10 µM.
